According to patent US4302458A, “Phthalidyl-isoquinoline derivatives” (Laborec Laboratoire de Recherches Biologiques, priority 1979, dated 1981):

Key:
[1] = Acute toxicity (LD 50), oral route, mice; conditions: mouse, in vivo
Procedure: (§1) The toxicity was determined in the conventional manner.

mice = conditions: mouse, in vivo
Procedure: as §1

histidine decarboxylase = assay: Histidine decarboxylase activity of guinea-pig kidneys after in vivo administration; conditions: for Activity expressed in % inhibition of the enzyme: guinea-pig renal enzyme, sacrificed five hours after administration, vs control animals
From the text: The activity of the compound 458 L was compared with that of tritoqualine, which is, to the Applicants' knowledge, the only product used therapeutically for this objective. The technique for measuring the histadine decarboxylase activity of guinea-pig kidneys has been described by B. Kosmicki et al (J. Pharmacol. Paris 1974-5-3-331-342). The guinea-pigs were sacrificed five hours after administering the substances under investigation. The percentage reduction in the activity of the renal enzyme of the treated animals was determined with respect to control animals.

CCOc1c(N)c2c(c(OCC)c1OCC)C(C1c3c(cc(OC)c(OC)c3OC)CCN1C)OC2=O (centres unmarked) [458 L, 2-methyl-6,7,8-trimethoxy-1[4,5,6-triethoxy-7-amino-3-phthalidyl]-1,2,3,4-tetrahydro-isoquinoline]
LD50 [1]: ~6000 mg/kg | chronic toxicity (tolerance) (mice): well tolerated | Activity expressed in % inhibition of the enzyme (histidine decarboxylase; dosage 10 mg/kg): 14% | Activity expressed in % inhibition of the enzyme (histidine decarboxylase; dosage 20 mg/kg): 21% | Activity expressed in % inhibition of the enzyme (histidine decarboxylase; dosage 40 mg/kg): 31% | Activity expressed in % inhibition of the enzyme (histidine decarboxylase; dosage 60 mg/kg): 41% | in vivo inhibition of histidine decarboxylase (in words) (histidine decarboxylase; in vivo): inhibiting in vivo the action of the enzyme histidine decarboxylase

CCOc1c(N)c2c(c(OCC)c1OCC)C(C1c3c(cc4c(c3OC)OCO4)CCN1C)OC2=O (centres unmarked) [Tritoqualine, tritoqualine, reference compound]
Activity expressed in % inhibition of the enzyme (histidine decarboxylase; dosage 10 mg/kg): 10% | Activity expressed in % inhibition of the enzyme (histidine decarboxylase; dosage 20 mg/kg): 20% | Activity expressed in % inhibition of the enzyme (histidine decarboxylase; dosage 40 mg/kg): 20% | Activity expressed in % inhibition of the enzyme (histidine decarboxylase; dosage 60 mg/kg): 22%
